From patent EP1984353B1, “AURORA KINASE MODULATORS AND METHOD OF USE” (Amgen, Inc, priority 2006, dated 2007)

How the values were obtained:
[1] = target: T1, AuroraB (Homo sapiens, UniProt Q96GD4); assay: AuroraB Homogeneous Time Resolved Fluorescent (HTRF) kinase assay; format: biochemical; settings: average; given as class symbols; read-out: AurB_ _IC50_IP (Avg)
T1 construct: 20 µL of AuroraB FL His; His
In short: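 HTRF read-out: after EDTA stop and ~60 min with europium anti-phospho-H3 antibody and streptavidin-APC, 655/615 nm ratio reports phosphorylation. Reaction: 400 pM AuroraB FL His, 23 µM ATP (at Km(app)), 0.1 µM biotin-Histone H3 peptide, 50 mM HEPES pH 7.5, MgCl/MnCl, ~90 min.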

[2] = system: phosphorylation of Histone H3; assay: HeLa cell 1-hour phospho-histone assay; format: cell-based; settings: Homo sapiens, HeLa, 1 h, HeLa cells, 1 hour; average; given as class symbols; read-out: pHH3 EC50_IP (Avg)
In short: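 HeLa cells were exposed to serially diluted compounds for 1 hour at 37 °C (0.5% DMSO final), then fixed, permeabilized and immunostained for phospho-histone H3 (Ser10) with Hoechst counterstain. High-content imaging scored the percentage of pHH3-positive cells.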

[3] = target: T2, AuroraA-TPX2 (Homo sapiens, UniProt O14965); assay: AuroraA-TPX2 Homogeneous Time Resolved Fluorescent (HTRF) kinase assay; format: biochemical; settings: average; given as class symbols; read-out: AurA/TP X2_ IC50_IP (Avg)
T2 construct: 20 µL of AuroraA-TPX2 KD GST; GST
T2 sequence (O14965 133-383 limits assumed): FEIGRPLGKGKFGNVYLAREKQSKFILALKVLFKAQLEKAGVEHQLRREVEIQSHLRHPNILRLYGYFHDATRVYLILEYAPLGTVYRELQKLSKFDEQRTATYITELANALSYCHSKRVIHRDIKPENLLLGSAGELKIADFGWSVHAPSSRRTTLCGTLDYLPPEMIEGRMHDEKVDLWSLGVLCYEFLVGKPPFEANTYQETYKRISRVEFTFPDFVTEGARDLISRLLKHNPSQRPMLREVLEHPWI
T2 sequence (Q9ULW0 1-43 partner limits assumed): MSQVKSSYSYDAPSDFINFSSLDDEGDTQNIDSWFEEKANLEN
In short: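 HTRF read-out: europium anti-phosphoPLK antibody (0.02 nM) plus streptavidin-APC detect phosphorylated biotin-PLK after EDTA stop and overnight equilibration. Kinase step runs about 120 min with Aurora-A/TPX2, ATP and roughly 1 µM PLK peptide at pH 7.5 HEPES buffer with Mg2+ and DTT.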

T1 sequence (Q96GD4 whole entry): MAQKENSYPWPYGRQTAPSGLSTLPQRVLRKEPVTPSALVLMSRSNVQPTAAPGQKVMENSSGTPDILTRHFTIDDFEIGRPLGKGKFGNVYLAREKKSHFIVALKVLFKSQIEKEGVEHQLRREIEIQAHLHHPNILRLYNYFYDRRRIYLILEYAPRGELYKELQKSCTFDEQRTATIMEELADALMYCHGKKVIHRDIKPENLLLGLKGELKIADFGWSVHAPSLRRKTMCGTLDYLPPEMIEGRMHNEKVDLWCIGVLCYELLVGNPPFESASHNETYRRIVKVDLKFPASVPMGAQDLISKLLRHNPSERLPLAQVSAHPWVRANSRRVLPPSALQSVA

| IC50 [1] | EC50 [2] | IC50 [3] | SMILES |
| --- | --- | --- | --- |
| ≤ 100 nM | ≤ 100 nM | ≤ 100 nM | CCN(CCO)CCCCNc1nccc(-c2cccnc2Oc2ccc(Nc3nnc(-c4ccccc4)c4ccccc34)cc2)n1 [compound 347, 2-(ethyl(4-((4-(2-((4-((4-phenyl-1-phthalazinyl)amino)phenyl)oxy)-3-pyridinyl)-2-pyrimidinyl)amino)butyl)amino)ethanol] |
| ≤ 100 nM | 100 to 500 nM | ≤ 100 nM | CCN(CCO)CCCCNc1nccc(-c2cccnc2Oc2ccc(Nc3nnc(-c4ccccc4)cc3C)cc2)n1 [compound 348, 2-(ethyl(4-((4-(2-((4-((4-methyl-6-phenyl-3-pyridazinyl)amino)phenyl)oxy)-3-pyridinyl)-2-pyrimidinyl)amino)butyl)amino)ethanol] |
| ≤ 100 nM | 100 to 500 nM | 100 to 500 nM | CCN(CCO)CCCNc1nccc(-c2cccnc2Oc2ccc(Nc3nnc(-c4ccccc4)c4ccccc34)cc2)n1 [compound 349, 2-(ethyl(3-((4-(2-((4-((4-phenyl-1-phthalazinyl)amino)phenyl)oxy)-3-pyridinyl)-2-pyrimidinyl)amino)propyl)amino)ethanol] |
| ≤ 100 nM | 100 to 500 nM | ≤ 100 nM | CCN(CCO)CCCNc1nccc(-c2cccnc2Oc2ccc(Nc3nnc(-c4ccccc4)cc3C)cc2)n1 [compound 350, 2-(ethyl(3-((4-(2-((4-((4-methyl-6-phenyl-3-pyridazinyl)amino)phenyl)oxy)-3-pyridinyl)-2-pyrimidinyl)amino)propyl)amino)ethanol] |
| ≤ 100 nM | 500 to 2500 nM | ≤ 100 nM | Cc1cc(-c2ccccc2)nnc1Nc1ccc(Oc2ncccc2-c2ccncc2)cc1 [compound 417, N-(4-(3,4'-bipyridin-2-yloxy)phenyl)-4-methyl-6-phenyl-3-pyridazinamine] |
| 100 to 500 nM | 500 to 2500 nM | 100 to 500 nM | O=S(=O)(O)CCCNc1nccc(-c2cccnc2Oc2ccc(Nc3nnc(-c4ccccc4)c4ccccc34)cc2)n1 [compound 421, 3-((4-(2-((4-((4-phenyl-1-phthalazinyl)amino)phenyl)oxy)-3-pyridinyl)-2-pyrimidinyl)amino)-1-propanesulfonic acid] |
| ≤ 100 nM | 100 to 500 nM | ≤ 100 nM | Cc1cc(-c2ccccc2)nnc1Nc1ccc(Oc2ncccc2-c2ccnc(NCCCN3CCN(C)CC3)n2)cc1 [compound 422, 4-methyl-N-(4-((3-(2-((3-(4-methyl-1-piperazinyl)propyl)amino)-4-pyrimidinyl)-2-pyridinyl)oxy)phenyl)-6-phenyl-3-pyridazinamine] |
| ≤ 100 nM | 100 to 500 nM | ≤ 100 nM | Cc1cc(-c2ccccc2)nnc1Nc1ccc(Oc2ncccc2-c2ccnc(NCCCCN(C)C)n2)cc1 [compound 423, N,N-dimethyl-N'-(4-(2-((4-((4-methyl-6-phenyl-3-pyridazinyl)amino)phenyl)oxy)-3-pyridinyl)-2-pyrimidinyl)-1,4-butanediamine] |
| ≤ 100 nM | 100 to 500 nM | ≤ 100 nM | Cc1cc(-c2ccccc2)nnc1Nc1ccc(Oc2ncccc2-c2ccnc(NCCCN3CCCCC3)n2)cc1 [compound 424, 4-methyl-6-phenyl-N-(4-((3-(2-((3-(1-piperidinyl)propyl)amino)-4-pyrimidinyl)-2-pyridinyl)oxy)phenyl)-3-pyridazinamine] |
| ≤ 100 nM | 100 to 500 nM | ≤ 100 nM | Cc1cc(-c2ccccc2)nnc1Nc1ccc(Oc2ncccc2-c2ccnc(NCCCN3CCCC3)n2)cc1 [compound 425, 4-methyl-6-phenyl-N-(4-((3-(2-((3-(1-pyrrolidinyl)propyl)amino)-4-pyrimidinyl)-2-pyridinyl)oxy)phenyl)-3-pyridazinamine] |
| ≤ 100 nM | 100 to 500 nM | ≤ 100 nM | CCN(CC)CCCNc1nccc(-c2cccnc2Oc2ccc(Nc3nnc(-c4ccccc4)cc3C)cc2)n1 [compound 426, N,N-diethyl-N'-(4-(2-((4-((4-methyl-6-phenyl-3-pyridazinyl)amino)phenyl)oxy)-3-pyridinyl)-2-pyrimidinyl)-1,3-propanediamine] |
| 500 to 2500 nM | 500 to 2500 nM | 500 to 2500 nM | Nc1nccc(-c2cccnc2Oc2ccc(Nc3nnc(-c4ccccc4)cc3C(=O)O)cc2)n1 [compound 433, 3-((4-((3-(2-amino-4-pyrimidinyl)-2-pyridinyl)oxy)phenyl)amino)-6-phenyl-4-pyridazinecarboxylic acid] |
